Measured values as given in patent publication US8192962B2, “Processes for detecting toxic substances” (Daikin Industries, Ltd., priority 2001, dated 2012).

Tested on: Transport facilitation protein genes
Test: DNA chip mRNA expression in yeast, transport facilitation protein genes (Table 5)
Type: cell-based, Saccharomyces cerevisiae S288C
Outline: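 Ratios compare mRNA levels in stressed and control S. cerevisiae. Each toxicant was applied for two hours to log-phase cultures at 25° C. at a sub-lethal, growth-inhibiting level; fluorescent cDNA (Cy3- or Cy5-dUTP) was hybridized to a genome-wide yeast chip for over 12 h at 65° C.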

**Q.** Which “The level of expressed mRNA in the presence of chemical substance/The level of expressed mRNA in the absence of chemical substance” value (yeast gene YGR224W) does the source give for `CCCCCCCCCCCCc1ccc(S(=O)(=O)[O-])cc1.[Na+]` [(17), sodium dodecylbenzosulfonate] here?
**A.** Its value is 2.8.

**Q.** And the “The level of expressed mRNA in the presence of chemical substance/The level of expressed mRNA in the absence of chemical substance” value (yeast gene YGR260W)?
**A.** The value was 0.9.

**Q.** What about the “The level of expressed mRNA in the presence of chemical substance/The level of expressed mRNA in the absence of chemical substance” value (yeast gene YGR281W) of the same molecule?
**A.** Its value is 2.8.

**Q.** And the “The level of expressed mRNA in the presence of chemical substance/The level of expressed mRNA in the absence of chemical substance” value (yeast gene YHL035C)?
**A.** Its value is 1.1.

**Q.** What about the “The level of expressed mRNA in the presence of chemical substance/The level of expressed mRNA in the absence of chemical substance” value (yeast gene YHL040C) of the same molecule?
**A.** The value was 1.4.

**Q.** And the “The level of expressed mRNA in the presence of chemical substance/The level of expressed mRNA in the absence of chemical substance” value (yeast gene YHL047C)?
**A.** The value was 1.2.

**Q.** And the “The level of expressed mRNA in the presence of chemical substance/The level of expressed mRNA in the absence of chemical substance” value (yeast gene YHR026W)?
**A.** Its value is 0.9.

**Q.** What about the “The level of expressed mRNA in the presence of chemical substance/The level of expressed mRNA in the absence of chemical substance” value (yeast gene YHR092C) of the same molecule?
**A.** Its value is 0.9.

**Q.** And the “The level of expressed mRNA in the presence of chemical substance/The level of expressed mRNA in the absence of chemical substance” value (yeast gene YHR094C)?
**A.** Its value is 1.4.

**Q.** And the “The level of expressed mRNA in the presence of chemical substance/The level of expressed mRNA in the absence of chemical substance” value (yeast gene YHR175W)?
**A.** Its value is 1.3.

**Q.** And the “The level of expressed mRNA in the presence of chemical substance/The level of expressed mRNA in the absence of chemical substance” value (yeast gene YIL006W)?
**A.** The value was 0.8.

**Q.** What about the “The level of expressed mRNA in the presence of chemical substance/The level of expressed mRNA in the absence of chemical substance” value (yeast gene YIL022W) of the same molecule?
**A.** The value was 0.8.

**Q.** What about the “The level of expressed mRNA in the presence of chemical substance/The level of expressed mRNA in the absence of chemical substance” value (yeast gene YIL056W) of the same molecule?
**A.** Its value is 1.5.

**Q.** What about the “The level of expressed mRNA in the presence of chemical substance/The level of expressed mRNA in the absence of chemical substance” value (yeast gene YIL088C) of the same molecule?
**A.** Its value is 1.2.

**Q.** What about the “The level of expressed mRNA in the presence of chemical substance/The level of expressed mRNA in the absence of chemical substance” value (yeast gene YJL034W) of the same molecule?
**A.** The value was 1.1.

**Q.** And the “The level of expressed mRNA in the presence of chemical substance/The level of expressed mRNA in the absence of chemical substance” value (yeast gene YJL212C)?
**A.** The value was 0.6.

**Q.** What about the “The level of expressed mRNA in the presence of chemical substance/The level of expressed mRNA in the absence of chemical substance” value (yeast gene YJL219W) of the same molecule?
**A.** Its value is 1.6.

**Q.** What about the “The level of expressed mRNA in the presence of chemical substance/The level of expressed mRNA in the absence of chemical substance” value (yeast gene YJR077C) of the same molecule?
**A.** Its value is 1.0.

**Q.** And the “The level of expressed mRNA in the presence of chemical substance/The level of expressed mRNA in the absence of chemical substance” value (yeast gene YJR106W)?
**A.** The value was 1.2.

**Q.** What about the “The level of expressed mRNA in the presence of chemical substance/The level of expressed mRNA in the absence of chemical substance” value (yeast gene YJR121W) of the same molecule?
**A.** The value was 1.1.

**Q.** What about the “The level of expressed mRNA in the presence of chemical substance/The level of expressed mRNA in the absence of chemical substance” value (yeast gene YKL016C) of the same molecule?
**A.** Its value is 1.0.

**Q.** What about the “The level of expressed mRNA in the presence of chemical substance/The level of expressed mRNA in the absence of chemical substance” value (yeast gene YKL146W) of the same molecule?
**A.** The value was 1.0.

**Q.** What about the “The level of expressed mRNA in the presence of chemical substance/The level of expressed mRNA in the absence of chemical substance” value (yeast gene YKR039W) of the same molecule?
**A.** Its value is 0.9.

**Q.** And the “The level of expressed mRNA in the presence of chemical substance/The level of expressed mRNA in the absence of chemical substance” value (yeast gene YKR067W)?
**A.** The value was 0.8.

**Q.** What about the “The level of expressed mRNA in the presence of chemical substance/The level of expressed mRNA in the absence of chemical substance” value (yeast gene YLL028W) of the same molecule?
**A.** Its value is 1.2.

**Q.** And the “The level of expressed mRNA in the presence of chemical substance/The level of expressed mRNA in the absence of chemical substance” value (yeast gene YLR081W)?
**A.** The value was 0.7.

**Q.** And the “The level of expressed mRNA in the presence of chemical substance/The level of expressed mRNA in the absence of chemical substance” value (yeast gene YLR295C)?
**A.** Its value is 0.9.

**Q.** What about the “The level of expressed mRNA in the presence of chemical substance/The level of expressed mRNA in the absence of chemical substance” value (yeast gene YLR348C) of the same molecule?
**A.** The value was 1.1.

**Q.** What about the “The level of expressed mRNA in the presence of chemical substance/The level of expressed mRNA in the absence of chemical substance” value (yeast gene YLR378C) of the same molecule?
**A.** Its value is 0.9.

**Q.** What about the “The level of expressed mRNA in the presence of chemical substance/The level of expressed mRNA in the absence of chemical substance” value (yeast gene YMR011W) of the same molecule?
**A.** Its value is 1.3.

**Q.** And the “The level of expressed mRNA in the presence of chemical substance/The level of expressed mRNA in the absence of chemical substance” value (yeast gene YMR162C)?
**A.** The value was 0.8.

**Q.** What about the “The level of expressed mRNA in the presence of chemical substance/The level of expressed mRNA in the absence of chemical substance” value (yeast gene YMR203W) of the same molecule?
**A.** The value was 0.8.

**Q.** What about the “The level of expressed mRNA in the presence of chemical substance/The level of expressed mRNA in the absence of chemical substance” value (yeast gene YNL055C) of the same molecule?
**A.** Its value is 1.2.

**Q.** What about the “The level of expressed mRNA in the presence of chemical substance/The level of expressed mRNA in the absence of chemical substance” value (yeast gene YNL259C) of the same molecule?
**A.** Its value is 2.6.

**Q.** What about the “The level of expressed mRNA in the presence of chemical substance/The level of expressed mRNA in the absence of chemical substance” value (yeast gene YNR072W) of the same molecule?
**A.** The value was 1.3.

**Q.** What about the “The level of expressed mRNA in the presence of chemical substance/The level of expressed mRNA in the absence of chemical substance” value (yeast gene YOL119C) of the same molecule?
**A.** Its value is 1.4.

**Q.** What about the “The level of expressed mRNA in the presence of chemical substance/The level of expressed mRNA in the absence of chemical substance” value (yeast gene YOL156W) of the same molecule?
**A.** The value was 0.9.

**Q.** What about the “The level of expressed mRNA in the presence of chemical substance/The level of expressed mRNA in the absence of chemical substance” value (yeast gene YOL163W) of the same molecule?
**A.** The value was 0.8.

**Q.** What about the “The level of expressed mRNA in the presence of chemical substance/The level of expressed mRNA in the absence of chemical substance” value (yeast gene YOR035C) of the same molecule?
**A.** The value was 1.6.

**Q.** What about the “The level of expressed mRNA in the presence of chemical substance/The level of expressed mRNA in the absence of chemical substance” value (yeast gene YOR130C) of the same molecule?
**A.** Its value is 1.5.

**Q.** What about the “The level of expressed mRNA in the presence of chemical substance/The level of expressed mRNA in the absence of chemical substance” value (yeast gene YOR153W) of the same molecule?
**A.** The value was 2.5.

**Q.** And the “The level of expressed mRNA in the presence of chemical substance/The level of expressed mRNA in the absence of chemical substance” value (yeast gene YOR273C)?
**A.** Its value is 3.2.

**Q.** What about the “The level of expressed mRNA in the presence of chemical substance/The level of expressed mRNA in the absence of chemical substance” value (yeast gene YOR316C) of the same molecule?
**A.** Its value is 0.8.

**Q.** And the “The level of expressed mRNA in the presence of chemical substance/The level of expressed mRNA in the absence of chemical substance” value (yeast gene YOR332W)?
**A.** Its value is 1.3.

**Q.** What about the “The level of expressed mRNA in the presence of chemical substance/The level of expressed mRNA in the absence of chemical substance” value (yeast gene YOR348C) of the same molecule?
**A.** The value was 0.9.

**Q.** And the “The level of expressed mRNA in the presence of chemical substance/The level of expressed mRNA in the absence of chemical substance” value (yeast gene YPL036W)?
**A.** The value was 0.4.

**Q.** And the “The level of expressed mRNA in the presence of chemical substance/The level of expressed mRNA in the absence of chemical substance” value (yeast gene YPL134C)?
**A.** Its value is 1.3.

**Q.** And the “The level of expressed mRNA in the presence of chemical substance/The level of expressed mRNA in the absence of chemical substance” value (yeast gene YPL271W)?
**A.** Its value is 1.2.

**Q.** And the “The level of expressed mRNA in the presence of chemical substance/The level of expressed mRNA in the absence of chemical substance” value (yeast gene YPR192W)?
**A.** Its value is 1.6.

**Q.** And the “The level of expressed mRNA in the presence of chemical substance/The level of expressed mRNA in the absence of chemical substance” value (yeast gene YPR194C)?
**A.** Its value is 1.0.
